Results published in publication PMC7064328 (Environmental Health Perspectives, 2020).
Where “and” joins values, the source holds several entries; their conditions need not be identical. Identical values can stand only once.

Legend:
[1] = Internal dosimetry of PFOA and GenX in maternal serum, maternal liver, amniotic fluid and whole embryos (UPLC-MS/MS); type: in vivo, mouse (CD-1)
Procedure: Solid tissues were homogenized in RODI water at a ratio of approximately 1:3 tissue mass (milligrams) to liquid volume (microliters). Maternal serum, amniotic fluid, and tissue homogenates ( 25μL ) were spiked with internal standard suspended in 0.1M formic acid in a denaturation step, followed by a subsequent protein crash using ice-cold acetonitrile. Samples were vortex mixed after addition of formic acid and acetonitrile and then centrifuged at 10,000×g for 5 min. Extract supernatants were separated using a Waters ACQUITY UPLC® (Waters Corporation) fitted with a Waters ACQUITY UPLC® BEH C18 Column ( 130Å; 1.7μm; 2.1mm×50mm ). Detection was performed using a Waters Quattro Premier™ XE tandem quadrupole mass spectrometer in negative ionization mode.

Pregnant CD-1 mice = experiment: Clinical chemistry of dam serum and urine; type: in vivo, mouse (CD-1); settings: for ALB / ALP / ALT / AST / BUN / Chol / Cre / Glu / HDL / LDL / SDH / TBA / TP / Trig: dam serum; for Ucrea: dam urine
Procedure: Dam livers, kidneys, and placentas were trimmed and embedded by the NIEHS Mouse Embryo Phenotyping Core. Tissues collected at necropsy were fixed in 4% PFA for 72 h and paraffin embedded, and 5-μm sections were prepared and stained with hematoxylin and eosin (H&E). Pathology was evaluated and a pathology review conducted by S.A.E. Diplomate American College of Veterinary Pathologists (DACVP). Pathology reviews were conducted as an informed approach analysis [e.g., nonblinded analysis; see Sills et al. ([2019])]. Select tissue slides were scanned using the AT2 Scanner (Aperio). Images were then captured for publication using the ImageScope software; version 12.3.0.5056 (Aperio). Serum and urine obtained from dams in Block 2 were analyzed using the AU480 clinical chemistry analyzer (Beckman Coulter Inc.). Reagents and calibration standards used to measure alkaline phosphatase (ALP), alanine aminotransferase (ALT), aspartate aminotransferase (AST), blood urea nitrogen (BUN), serum creatinine, urine creatinine, glucose (Glu), total protein (TP), triglyceride (Trig), high-density lipoprotein (HDL), cholesterol (Chol), and albumin (ALB) were purchased from Beckman Coulter Inc. Reagents for sorbitol dehydrogenase (SDH), total bile acid (TBA), and micro-TP were purchased from Sekisui Diagnostics. The reagent used to measure low-density lipoprotein (LDL) was purchased form Diazyme Laboratories.

SMILES: N.O=C(O)C(F)(OC(F)(F)C(F)(F)C(F)(F)F)C(F)(F)F (stereo not drawn) [GenX, ammonium 2,3,3,3-tetrafluoro-2-(heptafluoropropoxy)propanoate]
- Serum concentration, pregnant mice ([1]; 2 mg/kg/d): ~33000 ng/mL
- Dam serum concentration ([1]; 10 mg/kg/d throughout gestation): ~100 µg/mL
- Amniotic fluid concentration ([1]; E11.5, 2 mg/kg/d): 3.6 ± 2.2 µg/mL
- Maternal liver concentration ([1]; E11.5, 2 mg/kg/d): 5.45 ± 3.43 µg/g
- Maternal serum concentration ([1]; E11.5, 2 mg/kg/d): 33.5 ± 15.7 µg/mL
- Whole embryo concentration ([1]; E11.5, 2 mg/kg/d): 0.91 ± 0.22 µg/g and 0.91 ± 0.2 µg/g
- GenX accumulation in dam serum higher than accumulation of PFOA ([1]; E11.5, 2 mg/kg/d GenX vs 1 mg/kg/d PFOA): 32%
- Amniotic fluid concentration ([1]; E11.5, 10 mg/kg/d): 9.3 ± 2.0 µg/mL
- Maternal liver concentration ([1]; E11.5, 10 mg/kg/d): 19.9 ± 4.2 µg/g
- Maternal serum concentration ([1]; E11.5, 10 mg/kg/d): 118.1 ± 10.4 µg/mL
- Whole embryo concentration ([1]; E11.5, 10 mg/kg/d): 3.21 ± 0.51 µg/g and 3.21 ± 0.5 µg/g
- Female embryo concentration ([1]; E17.5, 2 mg/kg/d): 3.39 ± 1.44 µg/g
- Male embryo concentration ([1]; E17.5, 2 mg/kg/d): 3.04 ± 1.27 µg/g
- Maternal liver concentration ([1]; E17.5, 2 mg/kg/d): 4.56 ± 2.80 µg/g
- Maternal serum concentration ([1]; E17.5, 2 mg/kg/d): 22.9 ± 17.1 µg/mL
- Whole embryo concentration ([1]; E17.5, 2 mg/kg/d): 3.23 ± 1.28 µg/g
- Female embryo concentration ([1]; E17.5, 10 mg/kg/d): 6.89 ± 2.72 µg/g
- Male embryo concentration ([1]; E17.5, 10 mg/kg/d): 7.55 ± 3.35 µg/g
- Maternal liver concentration ([1]; E17.5, 10 mg/kg/d): 14.2 ± 7.6 µg/g
- Maternal serum concentration ([1]; E17.5, 10 mg/kg/d): 58.5 ± 34.5 µg/mL
- Whole embryo concentration ([1]; E17.5, 10 mg/kg/d): 7.69 ± 2.92 µg/g
- Chol higher compared with controls (Pregnant CD-1 mice; E11.5, 2 mg/kg/d): 66%
- Dam serum Trig lowered vs controls (Pregnant CD-1 mice; E11.5, 2 mg/kg/d): 43%
- HDL higher compared with controls (Pregnant CD-1 mice; E11.5, 2 mg/kg/d): 56%
- Dam serum Trig lowered vs controls (Pregnant CD-1 mice; E11.5, 10 mg/kg/d): 61%
- Dam serum Trig lower vs controls (Pregnant CD-1 mice; E17.5, 10 mg/kg/d): 74%
- LDL lower vs controls (Pregnant CD-1 mice; E17.5, 10 mg/kg/d): 31%
- ALB (Pregnant CD-1 mice; E11.5, 2 mg/kg/d): 2.75±0.33 (4) g/dL
- ALP (Pregnant CD-1 mice; E11.5, 2 mg/kg/d): 58.4±9.0 (5) U/L
- ALT (Pregnant CD-1 mice; E11.5, 2 mg/kg/d): 24.2±13.7 (5) U/L
- AST (Pregnant CD-1 mice; E11.5, 2 mg/kg/d): 69.0±22.0 (5) U/L
- BUN (Pregnant CD-1 mice; E11.5, 2 mg/kg/d): 18.3±4.6 (4) mg/dL
- Chol (Pregnant CD-1 mice; E11.5, 2 mg/kg/d): 93.4±27.8 (5) mg/dL
- Cre (Pregnant CD-1 mice; E11.5, 2 mg/kg/d): 0.2±0.04 (4) mg/dL
- Glu (Pregnant CD-1 mice; E11.5, 2 mg/kg/d): 249.3±25.8 (4) mg/dL
- HDL (Pregnant CD-1 mice; E11.5, 2 mg/kg/d): 50.2±15.7 (5) mg/dL
- LDL (Pregnant CD-1 mice; E11.5, 2 mg/kg/d): 15±4.8 (4) mg/dL
- SDH (Pregnant CD-1 mice; E11.5, 2 mg/kg/d): 7.0±6.5 (4) U/L
- TBA (Pregnant CD-1 mice; E11.5, 2 mg/kg/d): 1.4±0.55 (5) μM/L
- TP (Pregnant CD-1 mice; E11.5, 2 mg/kg/d): 4.5±0.48 (4) g/dL
- Trig (Pregnant CD-1 mice; E11.5, 2 mg/kg/d): 117.6±33.9 (5) mg/dL
- ALB (Pregnant CD-1 mice; E11.5, 10 mg/kg/d): 2.8±0.17 (3) g/dL
- ALP (Pregnant CD-1 mice; E11.5, 10 mg/kg/d): 83.0±25.8 (5) U/L
- ALT (Pregnant CD-1 mice; E11.5, 10 mg/kg/d): 78.2±62.0 (5) U/L
- AST (Pregnant CD-1 mice; E11.5, 10 mg/kg/d): 136.8±138.9 (4) U/L
- BUN (Pregnant CD-1 mice; E11.5, 10 mg/kg/d): 13.7±1.5 (3) mg/dL
- Chol (Pregnant CD-1 mice; E11.5, 10 mg/kg/d): 77.0±16.4 (4) mg/dL
- Cre (Pregnant CD-1 mice; E11.5, 10 mg/kg/d): 0.18±0.02 (3) mg/dL
- Glu (Pregnant CD-1 mice; E11.5, 10 mg/kg/d): 226.7±28.9 (3) mg/dL
- HDL (Pregnant CD-1 mice; E11.5, 10 mg/kg/d): 43.3±6.1 (4) mg/dL
- LDL (Pregnant CD-1 mice; E11.5, 10 mg/kg/d): 12.5±1.9 (4) mg/dL
- SDH (Pregnant CD-1 mice; E11.5, 10 mg/kg/d): 8.0±3.65 (4) U/L
- TBA (Pregnant CD-1 mice; E11.5, 10 mg/kg/d): 35.3±67.8 (4) μM/L
- TP (Pregnant CD-1 mice; E11.5, 10 mg/kg/d): 4.37±0.29 (3) g/dL
- Trig (Pregnant CD-1 mice; E11.5, 10 mg/kg/d): 80.3±14.4 (4) mg/dL
- ALB (Pregnant CD-1 mice; E17.5, 2 mg/kg/d): 2.32±0.26 (5) g/dL
- ALP (Pregnant CD-1 mice; E17.5, 2 mg/kg/d): 55.4±11.8 (5) U/L
- ALT (Pregnant CD-1 mice; E17.5, 2 mg/kg/d): 4.4±3.9 (5) U/L
- AST (Pregnant CD-1 mice; E17.5, 2 mg/kg/d): 65.6±12.1 (5) U/L
- BUN (Pregnant CD-1 mice; E17.5, 2 mg/kg/d): 13.6±1.1 (5) mg/dL
- Chol (Pregnant CD-1 mice; E17.5, 2 mg/kg/d): 86.6±17.1 (5) mg/dL
- Cre (Pregnant CD-1 mice; E17.5, 2 mg/kg/d): 0.17±0.03 (5) mg/dL
- Glu (Pregnant CD-1 mice; E17.5, 2 mg/kg/d): 123.2±13.1 (5) mg/dL
- HDL (Pregnant CD-1 mice; E17.5, 2 mg/kg/d): 39.4±8.5 (5) mg/dL
- LDL (Pregnant CD-1 mice; E17.5, 2 mg/kg/d): 20.0±3.9 (5) mg/dL
- SDH (Pregnant CD-1 mice; E17.5, 2 mg/kg/d): 1.2±2.2 (5) U/L
- TBA (Pregnant CD-1 mice; E17.5, 2 mg/kg/d): 4.8±3.0 (5) μM/L
- TP (Pregnant CD-1 mice; E17.5, 2 mg/kg/d): 4.1±0.36 (5) g/dL
- Trig (Pregnant CD-1 mice; E17.5, 2 mg/kg/d): 257.0±120.3 (5) mg/dL
- ALB (Pregnant CD-1 mice; E17.5, 10 mg/kg/d): 2.26±0.3 (5) g/dL
- ALP (Pregnant CD-1 mice; E17.5, 10 mg/kg/d): 88.8±13.0 (5) U/L
- ALT (Pregnant CD-1 mice; E17.5, 10 mg/kg/d): 9.6±2.1 (5) U/L
- AST (Pregnant CD-1 mice; E17.5, 10 mg/kg/d): 113.2±36.6 (5) U/L
- BUN (Pregnant CD-1 mice; E17.5, 10 mg/kg/d): 15.2±1.8 (5) mg/dL
- Chol (Pregnant CD-1 mice; E17.5, 10 mg/kg/d): 97.4±8.4 (5) mg/dL
- Cre (Pregnant CD-1 mice; E17.5, 10 mg/kg/d): 0.15±0.06 (5) mg/dL
- Glu (Pregnant CD-1 mice; E17.5, 10 mg/kg/d): 111.6±15.5 (5) mg/dL
- HDL (Pregnant CD-1 mice; E17.5, 10 mg/kg/d): 50.0±8.9 (5) mg/dL
- LDL (Pregnant CD-1 mice; E17.5, 10 mg/kg/d): 15.2±2.9 (5) mg/dL
- SDH (Pregnant CD-1 mice; E17.5, 10 mg/kg/d): 11.4±6.8 (5) U/L
- TBA (Pregnant CD-1 mice; E17.5, 10 mg/kg/d): 6.2±4.2 (5) μM/L
- TP (Pregnant CD-1 mice; E17.5, 10 mg/kg/d): 3.9±0.52 (5) g/dL
- Trig (Pregnant CD-1 mice; E17.5, 10 mg/kg/d): 120.6±31.7 (5) mg/dL
- Ucrea (Pregnant CD-1 mice; E11.5, 2 mg/kg/d): 53.2±14.0 (3) mg/dL
- Ucrea (Pregnant CD-1 mice; E11.5, 10 mg/kg/d): 82.9±33.2 (5) mg/dL
- Ucrea (Pregnant CD-1 mice; E17.5, 2 mg/kg/d): 18.6±5.1 (4) mg/dL
- Ucrea (Pregnant CD-1 mice; E17.5, 10 mg/kg/d): 20.2±15.7 (4) mg/dL
